Data reported in US20020019372A1 (priority 2000, published 2002).

Experiments:
[1] = tested on: renal proximal tubular cells; experiment: Monolayer DNA content as marker of renal proximal tubular cell proliferation after DCVC injury; assay type: cell-based, rabbit
Experimental: (§1) Rabbit renal proximal tubules were isolated by iron oxide perfusion method and grown in 35 mm culture dishes in improved conditions as described previously (Nowak and Schnellmann, 1996). The purity of the renal proximal tubular S1 and S2 segments isolated by this method is approximately 96%. The culture medium was a 50:50 mixture of Dulbecco's modified Eagle's essential medium (DMEM) and Ham's F-12 nutrient mix without phenol red, pyruvate, and glucose, supplemented with 15 mM NaHCO3, 15 mM N-2hydroxyethylpiperazine-N′-2-ethanesulfonic acid, and 6 mM lactate (pH7.4, 295 mosmol/kg). Human transferrin (5 μg/ml), selenium (5 ng/ml), hydrocortisone (50 nM), bovine insulin (10 nM), and L-ascorbic acid-2-phosphate (0.05 mM or 0.5 mM) were added to the medium immediately before daily media change (2 ml/ dish).
(§2) Renal proximal tubular cells monolayers reached confluence within 5 days and were treated with dichlorovinyl-L-cysteine (0.2 mM, 100 min) on day 6 of culture. Following dichlorovinyl-L-cysteine exposure, the remaining monolayer was washed with fresh medium and cultured for 4 days. Samples of renal proximal tubular cells were taken at various time points after dichlorovinyl-L-cysteine exposure for measurements of cellular functions. Prior to measurement of any functions, renal proximal tubular cells were washed with ice cold phosphate buffered saline (pH 7.4) or 37° C. culture media (for measurement of oxygen consumption, QO2) to remove non-viable cells.
Monolayer DNA content was used as a marker of renal proximal tubular cells proliferation. Monolayers were solubilized in 0.05 M Tris-HCl (pH 7.4) containing 0.15 M NaCl and 0.05% Triton X-100 and DNA determined in cell lysates by the method of Labarca and Paigen (1980) as described previously (Nowak and Schnellmann, 1996). Protein was measured by the method of Lowry et al. (1951).

[2] = tested on: renal proximal tubular cells; experiment: Ouabain-sensitive QO2 as marker of active Na+ transport; assay type: cell-based, rabbit
Experimental: as §1, with “dish). […]” for “dish).”
(§3) Washed renal proximal tubular cells monolayers were gently detached from the dishes with a rubber policeman, suspended in 37° C. culture medium and transferred to the oxygen consumption (QO2) measurement chamber. QO2 was measured polarographically using Clark type electrode as described previously (Nowak and Schnellmann, 1996; Nowak et al., 1998; Nowak et al., 1999). Ouabain-insensitive QO2 was measured in the presence of 0.1 mM ouabain and was calculated as a difference between basal and ouabain-insensitive QO2.

[3] = tested on: renal proximal tubular cells; experiment: Ouabain-insensitive oxygen consumption (QO2); assay type: cell-based, rabbit; settings: for decrease of ouabain-insensitive QO2: 24 hr after DCVC
Experimental: as §1, §2, §3

[4] = tested on: renal proximal tubular cells; experiment: Basal oxygen consumption (QO2) as marker of mitochondrial function; assay type: cell-based, rabbit
Experimental: as §1, §2, §3

[5] = tested on: α1 subunit of Na^+-K^+-ATPase; experiment: Immunocytochemical localization of Na+-K+-ATPase (confocal laser scanning microscopy); assay type: cell-based, rabbit; settings: for effect on Na+-K+-ATPase protein of the plasma membrane: DCVC 0.2 mM, independent of AscP concentration
Experimental: as §1, §2
At various time points following dichlorovinyl-L-cysteine exposure, control and DCVC-treated renal proximal tubular cells monolayers were washed 3 times with ice-cold PBS and fixed in 3.7% formaldehyde. Following permeabilization with 100% methanol for 10 min at −20° C., renal proximal tubular cells monolayers were washed with PBS containing 0.1% BSA and 0.3% Triton X-100 (PBS/0.1% BSA/0.3% Triton X-100) for 15 min at room temperature. Blocking of non-specific binding was performed for 30 min in PBS containing 8% BSA. […]

[6] = tested on: renal proximal tubular cells; settings: Nowak et al., 1999, cited from earlier work
[7] = DCVC-injured RPTC, 0.5 mM AscP, day 4

O=C1O[C@H]([C@@H](O)CO)C(O)=C1OP(=O)([O-])[O-].[Mg+2] [L-ascorbic acid phosphate, L-Ascorbic acid-2-phosphate magnesium salt]
proliferation and recovery of physiological functions and basolateral Na+-K+-ATPase expression ([1]; DCVC-injured RPTC, 0.5 mM AscP, by day 4 (summary)): proliferated, recovered all examined physiological functions and the basolateral membrane expression of Na^+-K^+-ATPase by day 4 | increase of monolayer DNA content ([1]; DCVC-injured RPTC, 0.5 mM AscP, day 2): 1.6 fold | increase of monolayer DNA content [1, 7]: 2.3 fold | monolayer DNA content relative to controls [1, 7]: 81 % of controls | monolayer DNA content in control RPTC, 0.05 vs 0.5 mM ([1]; control RPTC without DCVC): equivalent | time of return of active Na+ transport to control levels ([2]; DCVC-injured RPTC, pharmacological concentrations of AscP (discussion)): occurred on day 4 | ouabain-sensitive QO2 in control RPTC, 0.05 vs 0.5 mM ([2]; control RPTC without DCVC): equivalent | remaining decrease of ouabain-insensitive QO2 ([3]; DCVC-injured RPTC, through day 4, 0.05 mM AscP): 45% | ouabain-insensitive QO2 ([3]; control RPTC without DCVC, 0.05 mM AscP): 9.7±1.6 nmol O2/min/mg protein | ouabain-insensitive QO2 ([3]; control RPTC without DCVC, 0.5 mM AscP): 12.9±1.5 nmol O2/min/mg protein | basal QO2 in control RPTC, 0.05 vs 0.5 mM ([4]; control RPTC without DCVC): equivalent | basolateral Na+-K+-ATPase protein levels and distribution in control RPTC, physiological vs pharmacological concentration ([5]; control RPTC without DCVC): no difference

N[C@@H](CSC(Cl)=CCl)C(=O)O [dichlorovinyl-L-cysteine, S-(1,2dichlorovinyl)-L-cysteine]
renal proximal tubular cells death and loss from the monolayer ([1]; 24 hr after DCVC 0.2 mM, 100 min, independent of AscP 0.05 or 0.5 mM): 60% | loss of monolayer DNA ([1]; 24 hr after DCVC 0.2 mM, 100 min, regardless of AscP 0.05 or 0.5 mM): 61% | decrease of ouabain-insensitive QO2 ([3]; 0.05 mM AscP): 32% | decrease of ouabain-insensitive QO2 ([3]; 0.5 mM AscP): 50% | ouabain-insensitive QO2 ([3]; DCVC-treated RPTC, 24 hr, 0.05 mM AscP): 6.6±2.6 nmol O2/min/mg protein | ouabain-insensitive QO2 ([3]; DCVC-treated RPTC, 24 hr, 0.5 mM AscP): 6.5±1.0 nmol O2/min/mg protein | decrease of basal QO2 ([4]; 24 hr after DCVC, RPTC grown in 0.05 mM AscP): 59% | decrease in mitochondrial function ([4]; DCVC 0.2 mM, 100 min, independent of AscP concentration): 54% | decrease of basal QO2 ([4]; after DCVC, RPTC grown in 0.5 mM AscP): 62% | cell death and loss from the monolayer ([6]; earlier study): 30% | effect on Na+-K+-ATPase protein of the plasma membrane [5]: loss of Na^+-K^+-ATPase protein from the basolateral membrane | effect on Na+-K+-ATPase protein of the plasma membrane ([5]; listed as DCVC): loss of the Na^+-K^+-ATPase protein from the basolateral domain

EGF: epidermal growth factor, 10 ng/ml daily treatments
effect on inhibition of RPTC regeneration after DCVC-induced injury ([6]; daily treatments, 10 ng/ml): can be overcome
